Assay results as given in patent publication US20030180249A1, “Dosage forms for hygroscopic active ingredients” (priority 2002, published 2003).

Assays:
Assay type in all cases: physicochemical
[1] = Storage stability of valproate resinates (severe conditions): moisture uptake and appearance; settings: 40° C., 75% Relative Humidity
Description: One gram of each dry resin and resinate were weighed out accurately on an analytical balance in an aluminum dish along with a sample of sodium valproate. They were dried for two hours @60° C. in vaccuo and then placed in an incubator was at 40° C. and 75% Relative Humidity. After 17 hours the samples were removed from the incubator and weighed and observations on appearance were noted. % weight increases were calculated.

[2] = Storage stability of valproate resinates (ambient conditions): appearance over time; settings: ambient 25° C., 56% relative humidity
Description: The samples from Example 3 were re-dried @60° C. in vaccuo overnight and then exposed to ambient conditions. During the test the ambient temperature was 25° C. and relative humidity was 56%.

[3] = Release of valproate from resinate, flow-thru filtration cell, USP 24 valproic acid dissolution medium; settings: 37° C., equivalent of 60 mg sodium valproate
Description: The release of valproate from Resinate A was evaluated and compared to that of sodium valproate. The evaluation was performed using a 50 ml Millipore flow-thru filtration cell operated at 37° C. The dissolution medium was prepared as described in the US Pharmacopeia 24 monograph for Valproic Acid (page 1733).
An amount for resinate containing the equivalent of 60 mg of sodium valproate was used for one test and 60 mg of sodium valproate for the other. Fractions were collected at 20, 40, and 60 minutes. Sample preparation and analysis were done according to the US Pharmacopeia 24 monograph for Valproic Acid (page 1733).

For `CCCC(CCC)C(=O)[O-].[Na+]` [Na Valproate, sodium valproate], the “Moisture uptake (%)” value ([1]; 17 hours, after drying 2 h at 60° C. in vacuo) was 40.4%, the “Observation (appearance)” value ([1]; after 17 hours) was “Liquid” and the “Observation (appearance)” value ([2]; time 7:30) was “Sodium valproate sample is sticky;”. For the same molecule, the “Observation (appearance)” value ([2]; time 7:45) was “Sodium valproate sample is sticky;”, the “% Valproate dissolved or released, 20 mins” value ([3]; 20 mins) was 81.9% and the “% Valproate dissolved or released, 40 mins” value ([3]; 40 mins) was 97.8%. The “% Valproate dissolved or released, 60 mins” value ([3]; 60 mins) was 100% and the “Total release” value [3] was 60.1 mg.
